Test results reported in patent US8877967B2, “Compositions and methods for inhibition of cathepsins” (OXiGENE, Inc., priority 2012, dated 2014).

Experiments:
Assay type in all cases: biochemical
Human liver Cathepsin L = Human liver Cathepsin L (Homo sapiens (Human), UniProt P07711); assay: Cathepsin L inhibition, fluorometric Z-F-R-AMC assay; details: 1 nM cathepsin L, 50 μM Z-F-R-AMC, pH 5.5, 5 min preincubation, 25° C.
Procedure: Human liver Cathepsin L (Sigma) was preincubated with test compounds at various concentrations for 5 minutes at 25° C. The assay was initiated by addition of substrate Z-Phe-Arg-aminomethylcoumarin (“Z-F-R-AMC” Bacchem) and the final assay conditions were 1 nM cathepsin L, 50 μM Z-F-R-AMC, 100 mM sodium acetate pH 5.5, 1 mM EDTA (Omnipure), 3 mM DTT (EMD), 0.01% BRIJ 35 (Sigma), and 2.0% DMSO (Acros). Test compounds were serially diluted with DMSO and water to include a final concentration range of 10 μM to 10 pM. The reaction was monitored fluorometrically for 5 minutes at 25° C. using black 96-well Corning 3686 assay microplates with a Thermo Fluoroskan Ascent FL microplate reader at excitation and emission filter wavelengths of 355 nm and 460 nm, respectively. Data were analyzed to determine IC50 values utilizing GraphPad Prism 4.03 software with a minimum of a triplicate on the same microplate.

Human liver Cathepsin B = Human liver Cathepsin B (Homo sapiens (Human), UniProt P07858); assay: Cathepsin B inhibition, fluorometric Z-R-R-AMC assay; details: 1.1 nM cathepsin B, 60 μM Z-R-R-AMC, pH 6.0, 5 min preincubation, 37° C.
Procedure: Human liver Cathepsin B (Calbiochem) was pre-incubated with test compound at various concentrations for 5 minutes at 37° C. The assay was initiated by addition of substrate Z-Arg-Arg-aminomethylcoumarin (“Z-R-R-AMC” Bacchem) and the final assay conditions were 1.1 nM cathepsin B, 60 μM Z-R-R-AMC, 126 mM sodium potassium phosphate pH 6.0 (Fisher), 0.3 mM EDTA (Omnipure), 2.7 mM DTT (Omnipure), 0.004% BRIJ 35 (Sigma), and 2.0% DMSO (Acros) in a final volume of 200 μL. Test compounds were serially diluted with DMSO and 0.01% BRIJ 35 to include a final concentration range of 20 μM to 10 pM. The reaction was monitored fluorometrically for 5 minutes at 37° C. using black 96-well Corning 3686 assay microplates with a Thermo Fluoroskan Ascent FL microplate reader at excitation and emission filter wavelengths of 355 nm and 460 nm, respectively. Data were analyzed to determine IC50 values utilizing GraphPad Prism 4.03 software with a minimum of a triplicate on the same microplate.

[1] = molecular target: Cathepsin K (activated recombinant human procathepsin K) (Homo sapiens (Human), UniProt P43235); assay: Cathepsin K inhibition, fluorometric Z-F-R-AMC assay; details: 1.5 nM cathepsin K, 50 μM Z-F-R-AMC, pH 5.5, 5 min preincubation, 25° C.
Procedure: Recombinant human procathepsin K was obtained from Enzo Life Sciences. Activation of the proenzyme was performed in 32.5 mM sodium acetate pH 3.5, EDTA 1 mM, NaCl 500 mM, human procathepsin K 5.5 μM, at room temperature. Activation times were optimized and varied between 35 and 150 minutes. Cathepsin K was preincubated with test compounds at various concentrations for 5 minutes at 25° C. The assay was initiated by addition of substrate Z-Phe-Arg-aminomethylcoumarin (“Z-F-R-AMC” Bacchem) and the final assay conditions were 1.5 nM cathepsin K, 50 μM Z-F-R-AMC, 150 mM sodium acetate pH 5.5, 2.5 mM EDTA (Omnipure), 2.5 mM DTT (EMD), 0.01% BRIJ 35 (Sigma), and 4.0% DMSO (Acros). Test compounds were serially diluted with DMSO and water to include a final concentration range of 10 μM to 10 pM. The reaction was monitored fluorometrically for 5 minutes at 25° C. using black 96-well Corning 3686 assay microplates with a Thermo Fluoroskan Ascent FL microplate reader at excitation and emission filter wavelengths of 355 nm and 460 nm, respectively. Data were analyzed to determine IC50 values utilizing GraphPad Prism 4.03 software with a minimum of a triplicate on the same microplate.

Sequence of Cathepsin K (activated recombinant human procathepsin K) (P43235 115-329): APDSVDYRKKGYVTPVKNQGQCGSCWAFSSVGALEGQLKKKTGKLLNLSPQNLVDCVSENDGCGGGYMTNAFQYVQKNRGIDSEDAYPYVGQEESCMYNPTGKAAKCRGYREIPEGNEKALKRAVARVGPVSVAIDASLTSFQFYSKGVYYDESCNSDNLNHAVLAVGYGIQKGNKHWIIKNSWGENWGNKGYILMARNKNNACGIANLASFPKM
Sequence of Human liver Cathepsin L (P07711 114-333): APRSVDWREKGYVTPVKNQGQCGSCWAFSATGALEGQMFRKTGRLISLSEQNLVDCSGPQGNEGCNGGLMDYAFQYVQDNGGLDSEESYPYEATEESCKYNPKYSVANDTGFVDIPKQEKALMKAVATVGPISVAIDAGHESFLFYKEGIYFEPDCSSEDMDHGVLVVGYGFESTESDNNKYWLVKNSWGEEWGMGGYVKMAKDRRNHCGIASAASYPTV

**Q.** What does the source list for `CC(C)Oc1ccc(C(=O)c2cccc(C(=NNC(N)=S)c3ccc(OC(C)C)cc3)c2)cc1` [Compound 22, 1,3-bis-(4-isopropoxybenzoyl)benzene thiosemicarbazone]?
**A.** IC50 (Human liver Cathepsin L): > 10000 nM; IC50 (Human liver Cathepsin B): > 10000 nM

**Q.** For `NC(=S)NN=C(c1ccc(F)cc1)c1cccc(C(=O)c2ccc(F)cc2)c1` [Compound 13, 1,3-bis-(4-fluorobenzoyl)benzene thiosemicarbazone], which IC50 (Human liver Cathepsin L) is on record?
**A.** The IC50 was 24.3 nM.

**Q.** What about the IC50 [1] of the same molecule?
**A.** Its IC50 is 8500 nM.

**Q.** What about the IC50 (Human liver Cathepsin B) of the same molecule?
**A.** The IC50 was over 10000 nM.

**Q.** For `NC(=S)NN=C(c1cc(Br)cc(C(=O)c2ccccc2F)c1)c1ccccc1F` [Compound 11, 1,3-bis(2-fluoro-benzoyl)-5-bromobenzene thiosemicarbazone], which IC50 (Human liver Cathepsin L) is on record?
**A.** The IC50 was 8.12 nM.

**Q.** And the IC50 (Human liver Cathepsin B)?
**A.** The IC50 was over 10000 nM.

**Q.** What does the source list for `NC(=S)NN=C(c1ccccc1)c1cccc(C(=O)c2ccccc2)c1` [Compound 3, 3-benzoyl benzophenone thiosemicarbazone]?
**A.** IC50 (Human liver Cathepsin L): 10.5 nM; IC50 [1]: 17.4 nM; IC50 (Human liver Cathepsin B): > 10000 nM

**Q.** Which results are given for `CC(C)Oc1ccc(C(=NNC(N)=S)c2cccc(C(=NNC(N)=S)c3ccc(OC(C)C)cc3)c2)cc1` [Compound 23, 1,3-bis-(4-isopropoxybenzoyl)benzene dithiosemicarbazone]?
**A.** IC50 (Human liver Cathepsin L): > 10000 nM; IC50 [1]: > 10000 nM

**Q.** For `NC(=S)NN=C(c1ccccc1)c1cccc(C(O)c2ccccc2)c1` (stereo not drawn) [Compound 6, 3-Benzoyl benzhydrol thiosemicarbazone], which IC50 (Human liver Cathepsin L) is on record?
**A.** Its IC50 is 23.8 nM.

**Q.** And the IC50 (Human liver Cathepsin B)?
**A.** Its IC50 is over 10000 nM.

**Q.** With `COc1ccc(C(=NNC(N)=S)c2cccc(C(=NNC(N)=S)c3ccc(OC)cc3)c2)cc1` [Compound 33, 1,3-bis-(4-methoxybenzoyl)benzene dithiosemicarbazone] as the molecule, how does the IC50 (Human liver Cathepsin L) read?
**A.** The IC50 was 587 nM.

**Q.** What about the IC50 [1] of the same molecule?
**A.** Its IC50 is 2100 nM.

**Q.** What about the IC50 (Human liver Cathepsin B) of the same molecule?
**A.** The IC50 was over 10000 nM.

**Q.** What does the source list for `Cc1cccc(C(=O)c2cccc(C(=NNC(N)=S)c3cccc(C)c3)c2)c1` [Compound 9, 1-(3-methylbenzoyl),3-(3-methylbenzoyl)benzene thiosemicarbazone]?
**A.** IC50 (Human liver Cathepsin L): 7820 nM; IC50 [1]: 1030 nM

**Q.** How did the IC50 (Human liver Cathepsin L) turn out when `NC(=S)NN=C(c1ccccc1)c1cc(C(=O)c2ccccc2)cc(C(=O)c2ccccc2)c1` [Compound 25, 1,3,5-Tribenzoyl benzene thiosemicarbazone] was run?
**A.** The IC50 was 25 nM.

**Q.** And the IC50 [1]?
**A.** Its IC50 is 2800 nM.

**Q.** What does the source list for `NC(=S)NN=C(c1ccc(Br)cc1)c1cccc(C(=O)c2ccc(Br)cc2)c1` [Compound 24, 1,3-bis-(4-bromobenzoyl)benzene thiosemicarbazone]?
**A.** IC50 (Human liver Cathepsin L): > 10000 nM; IC50 [1]: > 10000 nM; IC50 (Human liver Cathepsin B): > 10000 nM
